Reference: publication PMC10166890, “Screening for DAX1/EWS‐FLI1 functional inhibitors identified dihydroorotate dehydrogenase as a therapeutic target for Ewing's sarcoma” (Cancer Medicine, 2023)
pIC50: −log10 of the molar value.

What was measured:
DAX1 = DAX1 reporter assay (KJMGER8/pAGal9p4‐hDAX1 cells, luciferase); type: cell-based, human
Description: pAGal9‐hDAX1 and pAPPRE×10‐Luc + were transfected into KJMGER8 cells by electroporation using a Gene Pulser (Bio‐Rad Laboratories, Hercules, CA, USA), and clones stably expressing the DAX1 and luciferase reporter genes under the control of PPRE were selected. The obtained clone was termed KJMGER8/pAGal9p4‐hDAX1. KJMGER8/pAGal9p4‐hDAX1 cells (1.8 × 10^4 cells/well) were seeded in 384‐well white plates (Greiner Japan, Tokyo, Japan) and cultured in RPMI1640‐IPTSG medium containing 10 nM 17β‐estradiol (E2; Sigma‐Aldrich), dissolved in ethanol, with test compounds at concentration ranges of 0.01 to 10,000 nM or vehicle (dimethyl sulfoxide [DMSO]). The final DMSO concentration was ≤0.3%, and the ethanol concentration was 0.1%. The next day, Blight‐Glo Luciferase Assay Reagent (Promega, Madison, WI, USA) was added to the medium. The luciferase activity was measured using a TopCount NXT system (PerkinElmer, Waltham, MA, USA). IC50 values were calculated using XLfit version 4 (ID Business Solutions, Surrey, UK).
A DAX1 reporter assay system was constructed with the estrogen‐inducible Namalwa cell (KJMGER8 cell) by co‐transfection with pAGal9‐hDAX1 and pAPPRE×10‐Luc+.[18] In the obtained cell line KJMGER8/pAGal9p4‐hDAX1, DAX1 expression is induced by E2 treatment, and the expressed DAX1 increases luciferase expression. Reporter activity was increased by E2 treatment as expected (Figure S2). […] Using this DAX1 reporter assay system, small‐molecule compounds in an in‐house library were screened to obtain DAX1 inhibitors, and K‐234 was identified (Figure 1).
pAGal9-hDAX1 and pAPPRE×10-Luc+ were transfected into KJMGER8 cells by electroporation using a Gene Pulser (Bio-Rad Laboratories, Hercules, CA, USA), and clones stably expressing the DAX1 and luciferase reporter genes under the control of PPRE were selected. The obtained clone was termed KJMGER8/pAGal9p4-hDAX1. KJMGER8/pAGal9p4-hDAX1 cells (1.8×10^4 cells/well) were seeded in 384-well white plates (Greiner Japan, Tokyo, Japan) and cultured in RPMI1640-IPTSG medium containing 10 nM 17β-estradiol (E2; Sigma-Aldrich), dissolved in ethanol, with test compounds at concentration ranges of 0.01 to 10000 nM or vehicle (dimethyl sulfoxide [DMSO]). The final DMSO concentration was ≤0.3%, and the ethanol concentration was 0.1%. The next day, Blight-Glo Luciferase Assay Reagent (Promega, Madison, WI, USA) was added to the medium. The luciferase activity was measured using a TopCount NXT system (PerkinElmer, Waltham, MA, USA). IC50 values were calculated using XLfit version 4 (ID Business Solutions, Surrey, UK)

TC‐71 cells = assay: Cell viability assay (XTT), TC‐71 cells; type: cell-based, human; settings: 72 h
Description: AsPC‐1, A‐673, and TC‐71 cells were seeded in 96‐well plates (800 cells/well for AsPC‐1, 2000 cells/well for A‐673, and 400 cells/well for TC‐71) and cultured overnight. Vehicle (DMSO) or a test compound diluted with the medium was then added to the wells (final DMSO concentration was 0.3%), and 72 h later, 2,3‐bis[2‐methoxy‐4‐nitro‐5‐sulfophenynl]‐2H‐tetrazolium‐5‐carboxanilide inner salt (XTT) reagent (Roche Diagnostics, Mannheim, Germany) was added to the medium. After 3‐h incubation at 37°C, the formation of the formazan dye was determined by measuring absorbance at 490 and 650 nm using a SpectraMax 340PC system (Molecular Devices, Sunnyvale, CA, USA).

Cc1nc(-c2ccc(C3c4[nH]c5ccc(Cl)cc5c4CCN3C(=O)Oc3ccccc3)cc2)no1 (stereo not drawn) [K-733, phenyl 6‐chloro‐1‐(4‐(5‐methyl‐1,2,4‐oxadiazol‐3‐yl)phenyl)‐1,3,4,9‐tetrahydro‐2H‐pyrido[3,4‐b]indole‐2‐carboxylate]
pIC50 (DAX1; Homo sapiens, KJMGER8/pAGal9p4‐hDAX1 cells, 10 nM E2, overnight, read-out: IC50 for inhibition of DAX1 reporter activity): 8.05 | Effect of uridine addition on inhibition of DAX1 reporter activity (DAX1; uridine 100 μM, overnight): completely abrogated | Cell viability of TC‐71 cells (TC‐71 cells): decreased the viability
